13 compounds from patent publication US20230399287A1, “NOVEL COMPOUNDS” (Sitryx Therapeutics Limited, priority 2020, published 2023) can be followed below.

One data set deals with IL-1β. Kind of data set: THP-1 AlphaLISA IL-1β cytokine assay. Conditions: Homo sapiens, THP-1, differentiated THP-1 cells, LPS 24 hr then Nigericin 1 hour. It is filed as cell-based. As to the method:
(§1) Measuring Inhibitory Effects on IL-1V and IL-6 Cytokine Output from THP-1s
(§2) The cytokine inhibition profiles of compounds of formula (I) were determined in a differentiated THP-1 cell assay. All assays were performed in RPMI-1640 growth medium (Gibco), supplemented with 10% fetal bovine serum (FBS; Gibco), 1% penicillin-streptomycin and 1% sodium pyruvate unless specified otherwise. The IL-1β and IL-6 cytokine inhibition assays were run in a background of differentiated THP-1 cells as described below. All reagents described were from Sigma-Aldrich unless specified otherwise. Compounds were prepared as 10 mM DMSO stocks.
(§3) THP-1 cells were expanded as a suspension up to 80% confluence in appropriate growth medium. Cells were harvested, suspended, and treated with an appropriate concentration of phorbol 12-myristate 13-acetate (PMA) over a 72 hr period (37° C./5% CO2).
(§4) Following 72 hrs of THP-1 cell incubation, cellular medium was removed and replaced with fresh growth media containing 1% of FBS. Working concentrations of compounds were prepared separately in 10% FBS treated growth medium and pre-incubated with the cells for 30 minutes (37° C./5% CO2). Following the 30 minute compound pre-incubation, THP-1s were treated with an appropriate concentration of LPS and the THP-1s were subsequently incubated for a 24 hr period (37° C./5% CO2). An appropriate final concentration of Nigericin was then dispensed into the THP-1 plates and incubated for 1 hour (37° C./5% CO2) before THP-1 supernatants were harvested and collected in separate polypropylene 96-well holding plates.
(§5) Reagents from each of the IL-1β and IL-6 commercial kits (Perkin Elmer) were prepared and run according to the manufacturer's instructions. Subsequently, fluorescence signal detection in a microplate reader was measured (EnVision® Multilabel Reader, Perkin Elmer).
(§6) Percentage inhibition was calculated per cytokine by normalising the sample data to the high and low controls used within each plate (+/−LPS respectively). Percentage inhibition was then plotted against compound concentration and the 50% inhibitory concentration ([…]) was determined from the resultant concentration-response curve.
For orientation: Bead proximity is the source of the signal in Alpha formats.

Another data set concerns IL-6. Kind of data set: THP-1 AlphaLISA IL-6 cytokine assay. It counts as cell-based. The note with it: Homo sapiens, THP-1, differentiated THP-1 cells, LPS 24 hr then Nigericin 1 hour. As to the method: as §1, §2, §3, §4, §5, §6
Data set [1] can be described thus: Hepatocyte stability assay (human). It is filed as in vitro ADME. The note with it: human, cryopreserved hepatocytes, 10 μM compound, 60 min, read-out: T½. From the text: (§7) Defrosted cryo-preserved hepatocytes (viability>70%) were used to determine the metabolic stability of a compound via calculation of intrinsic clearance (Clint; a measure of the removal of a compound from the liver in the absence of blood flow and cell binding). Clearance data are particularly important for in vitro work as they can be used in combination with in vivo data to predict the half-life and oral bioavailability of a drug.
(§8) The metabolic stability in hepatocytes assay involved a time-dependent reaction using both positive and negative controls. The cells must be pre-incubated at 37° C. then spiked with test compound (and positive control); samples taken at pre-determined time intervals were analysed to monitor the change in concentration of the initial drug compound over 60 minutes. A buffer incubation reaction (with no hepatocytes present) acted as a negative control and two cocktail solutions, containing compounds with known high and low clearance values (verapamil/7-hydroxycoumarin and propranolol/diltiazem), acted as positive controls. • 1. The assay was run with a cell concentration of 0.5×10^6 cells/mL in Leibovitz buffer. • 2. All compounds and controls were run in duplicate. • 3. Compound concentration was 10 μM. • 4. All compounds and controls were incubated with both cells and buffer to show turnover is due to hepatic metabolism. • 5. All wells on the incubation plate had 326.7 μL of either cells or buffer added. • 6. Prior to assay, cell and buffer-only incubation plates were preincubated for 10 mins at 37° C. • 7. The assay was initiated by adding compounds, 3.3 μL of 1 mM in 10% DMSO-90% Buffer; final DMSO concentration is 0.1%. • 8. Samples were taken at regular timepoints (0, 5, 10, 20, 40, 60 min) until 60 mins. • 9. Sample volume was 40 μL and added to 160 μL of crash solvent (acetonitrile with internal standard) and stored on ice. • 10. At the end of the assay, the crash plates were centrifuged at 3500 rpm for 20 mins at 4° C. • 11. 80 μL of clear supernatant was removed and mixed with 80 μL of deionised water before being analysed by LC-MS/MS.
(§9) Raw LC-MS/MS data were exported to, and analysed in, Microsoft Excel for determination of intrinsic clearance. The percentage remaining of a compound was monitored using the peak area of the initial concentration as 100%. Intrinsic clearance and half-life values were calculated using a graph of the natural log of percentage remaining versus the time of reaction in minutes. Half-life (min) and intrinsic clearance (Clint in μL min^−1 10^−6 cells) values were calculated using the gradient of the graph (the elimination rate constant, k) and Equations 1 and 2.

Data set [2] relates to hepatocytes. Kind of data set: Hepatocyte stability assay (human). It is filed as in vitro ADME. The note with it: 10 μM compound, 60 min.
Text: as §7, §8, §9

Data set [3] can be described thus: Hepatocyte stability assay (mouse). It counts as in vitro ADME. The note with it: mouse, cryopreserved hepatocytes, 10 μM compound, 60 min, read-out: T½.
Text: as §7, §8, §9

Data set [4] deals with hepatocytes. Kind of data set: Hepatocyte stability assay (mouse). It is filed as in vitro ADME. Conditions: 10 μM compound, 60 min.
Text: as §7, §8, §9

Where only a bound is given, the exact number is not on record here.

In general, IC50 refers to the concentration needed to halve the response being measured. Higher therefore signals lower potency. With `C=C(CC(=O)OC1(c2ccc(C(F)(F)F)cc2)CC2(CCC2)C1)C(=O)O` [Example 35, 2-methylene-4-oxo-4-((2-(4-(trifluoromethyl)phenyl)spiro[3.3]heptan-2-yl)oxy)butanoic acid], the results for the IC50 in the data set with IL-1β and in the data set with IL-6 were 8.8 µM and more than 31.6 µM, respectively. Besides, the half-life at 10 μM in data set [1] was determined as 86 min; in data set [3] it was 30 min. In addition, the Clint in the data set with hepatocytes [2] is 14 μL min^−1 10^−6 cells; in the data set on hepatocytes [4], 73 μL min^−1 10^−6 cells.
Regarding `C=C(CC(=O)OC1(c2ccc(Br)cn2)CCC1)C(=O)O` [Example 50, 4-(1-(5-bromopyridin-2-yl)cyclobutoxy)-2-methylene-4-oxobutanoic acid], the concentration for half-maximal inhibition (IC50) was 1.5 µM with IL-1β and more than 100 µM in the data set on IL-6. Also, the half-life at 10 μM in data set [1] was more than 460 min; in data set [3], 420 min. The Clint was less than 3 μL min^−1 10^−6 cells with hepatocytes [2] and 4 μL min^−1 10^−6 cells with hepatocytes [4].
On to `C=C(CC(=O)O[C@]1(c2ccc(C(F)(F)F)cc2)C[C@H](C)C1)C(=O)O` [Example 45, (cis)-4-(3-methyl-1-(4-(trifluoromethyl)phenyl)cyclobutoxy)-2-methylene-4-oxobutanoic acid], for which the IC50 is 3.4 µM in the data set with IL-1β and more than 100 µM in the data set on IL-6. For the same compound, the figures for the half-life at 10 μM in data set [1] and in data set [3] were more than 460 min and 156 min, respectively. The Clint in the data set on hepatocytes [2] was less than 3 μL min^−1 10^−6 cells; with hepatocytes [4], 8 μL min^−1 10^−6 cells.
Regarding `C=C(CC(=O)OC1(c2ccc(C(F)(F)F)cc2)CS(=O)(=O)C1)C(=O)O` [Example 49, 4-((1,1-dioxido-3-(4-(trifluoromethyl)phenyl)thietan-3-yl)oxy)-2-methylene-4-oxobutanoic acid], the IC50 with IL-1β was 5 µM; in the data set with IL-6, more than 100 µM. For the same compound, the figures for the half-life at 10 μM in data set [1] and in data set [3] were 15 min and 19 min, respectively. Also, the Clint was found to be 91 μL min^−1 10^−6 cells with hepatocytes [2] and 68 μL min^−1 10^−6 cells in the data set on hepatocytes [4].
`C=C(CC(=O)OC1(c2ccc(C(F)(F)F)nc2)CCC1)C(=O)O` [Example 22, 2-methylene-4-oxo-4-(1-(6-(trifluoromethyl)pyridin-3-yl)cyclobutoxy)butanoic acid]: the IC50 in the data set on IL-1β was 5.1 µM; in the data set on IL-6, more than 100 µM. Also, the results for the half-life at 10 μM in data set [1] and in data set [3] were more than 460 min and 532 min, respectively. The Clint in the data set on hepatocytes [2] is recorded as less than 3 μL min^−1 10^−6 cells; in the data set with hepatocytes [4], 4 μL min^−1 10^−6 cells.
Consider `C=C(CC(=O)O[C@H](c1ccc(C(F)(F)F)cc1)C(F)(F)F)C(=O)O` [Example 34, (R)-2-methylene-4-oxo-4-(2,2,2-trifluoro-1-(4-(trifluoromethyl)phenyl)ethoxy)butanoic acid], for which the IC50 in the data set with IL-1β is 12.2 µM; in the data set on IL-6 it was more than 31.6 µM. For the same compound, the half-life at 10 μM stood at 52 min in data set [1] and 26 min in data set [3]. Also, the Clint is given as 26 μL min^−1 10^−6 cells in the data set with hepatocytes [2] and 48 μL min^−1 10^−6 cells in the data set with hepatocytes [4].
On to `C=C(CC(=O)OC1(c2ccc(C(F)F)cc2)CCC1)C(=O)O` [Example 20, 4-(1-(4-(difluoromethyl)phenyl)cyclobutoxy)-2-methylene-4-oxobutanoic acid], for which the IC50 came to 3 µM in the data set with IL-1β and 48.7 µM with IL-6. The values for the half-life at 10 μM in data set [1] and in data set [3] were 447 min and 140 min, respectively. The Clint in the data set with hepatocytes [2] stood at 4 μL min^−1 10^−6 cells; with hepatocytes [4] it was 13 μL min^−1 10^−6 cells.
With `C=C(CC(=O)OC1(c2ccc(C(F)(F)F)cc2)CCOCC1)C(=O)O` [Example 47, 2-methylene-4-oxo-4-((4-(4-(trifluoromethyl)phenyl)tetrahydro-2H-pyran-4-yl)oxy)butanoic acid], the IC50 with IL-1β was 6.7 µM; with IL-6, more than 100 µM. Further, the half-life at 10 μM in data set [1] and in data set [3] was more than 460 min in each case. For the same compound, the Clint in the data set with hepatocytes [2] and in the data set with hepatocytes [4] was less than 3 μL min^−1 10^−6 cells throughout.
Consider `C=C(CC(=O)OC1(c2ccc(C(F)(F)F)s2)CCC1)C(=O)O` [Example 32, 2-methylene-4-oxo-4-(1-(5-(trifluoromethyl)thiophen-2-yl)cyclobutoxy)butanoic acid], for which the IC50 in the data set with IL-1β was 5.2 µM; in the data set with IL-6 it was more than 100 µM. The half-life at 10 μM in data set [1] is 92 min; in data set [3] it was 76 min. The Clint is recorded as 17 μL min^−1 10^−6 cells in the data set on hepatocytes [2] and 21 μL min^−1 10^−6 cells with hepatocytes [4].
As for `C=C(CC(=O)OC1(c2ccc(C(F)(F)F)cn2)COC1)C(=O)O` [Example 46, 2-methylene-4-oxo-4-(3-(5-(trifluoromethyl)pyridin-2-yl)oxetan-3-yloxy)butanoic acid], the IC50 was 4.1 µM in the data set with IL-1β and more than 31.6 µM in the data set with IL-6. The half-life at 10 μM in data set [1] and in data set [3] was more than 460 min throughout. Besides, the Clint in the data set with hepatocytes [2] and in the data set with hepatocytes [4] was less than 3 μL min^−1 10^−6 cells each time.
With `C=C(CC(=O)OC1(c2ccc(C(F)(F)F)c(F)c2)CCC1)C(=O)O` [Example 17, 4-(1-(3-fluoro-4-(trifluoromethyl)phenyl)cyclobutoxy)-2-methylene-4-oxobutanoic acid], the IC50 with IL-1β was 2 µM; with IL-6, more than 31.6 µM. Besides, the half-life at 10 μM in data set [1] was determined as 157 min; in data set [3], 212 min. In addition, the Clint in the data set on hepatocytes [2] came to 11 μL min^−1 10^−6 cells; in the data set with hepatocytes [4] it was 9 μL min^−1 10^−6 cells.
On to `C=C(CC(=O)OC1(c2ccc(C(F)(F)C(F)(F)F)cc2)CCC1)C(=O)O` [Example 31, 2-methylene-4-oxo-4-(1-(4-(perfluoroethyl)phenyl)cyclobutoxy)butanoic acid], for which the concentration for half-maximal inhibition (IC50) in the data set with IL-1β was 3.4 µM; with IL-6, more than 100 µM. For the same compound, the half-life at 10 μM turned out to be 140 min in data set [1] and 42 min in data set [3]. The Clint with hepatocytes [2] was found to be 11 μL min^−1 10^−6 cells; with hepatocytes [4], 38 μL min^−1 10^−6 cells.
On to `C=C(CC(=O)OC1(c2ccc(C#N)cc2)CCC1)C(=O)O` [Example 25, 4-(1-(4-cyanophenyl)cyclobutoxy)-2-methylene-4-oxobutanoic acid], for which the IC50 was 15.5 µM in the data set with IL-1β and more than 100 µM with IL-6. Further, the half-life at 10 μM in data set [1] stood at 339 min; in data set [3], 177 min. Also, the Clint with hepatocytes [2] came to 4 μL min^−1 10^−6 cells; in the data set with hepatocytes [4], 9 μL min^−1 10^−6 cells.
